Values after ≈ are worked out from the molar mass of the structure shown. Like-named read-outs stand apart in the source and are kept apart here.
Experiments:
[1] = Phase solubility studies of Compound I with cyclodextrins (excess compound, 7 days, 37° C., HPLC); type: physicochemical; settings: for solubility at 7 days: 37 °C, thermodynamic from solid
Protocol: At the time of a complex formation, compound I, practically insoluble in water (<0.6 μg/ml, MW: 485), solubilizes dramatically. The increase in the solubility of compound I is thus proof of a complex formation between Compound I and the CD. Complex formation and achievement of the equilibrium is found at 20% after 1 day, 40% after 4 days, and 100% after 7 days. The solubility diagrams (FIG. 1) are carried out by adding an excess of compound I to the CD solutions of increasing concentration. After 7 days of stirring in thermostatically controlled baths at 37° C., these solutions are filtered and the solubilized compound I quantity is dosed by HPLC. The βCD and the γCD as well as their synthetic derivatives have allowed complexes with compound I to be formed. The β-CD and the HPβCD come from ROQUETTE (France), the RMβCD and the γCD have been supplied by Wacker (Germany).
The flasks containing compound I and the cyclodextrins are placed being stirred in thermostatically controlled baths at 37° C. for 7 days, so that the complexation balance is reached. After this time, the suspensions are filtered with the help of a milli-pore filter 0.22 μm in PVDF and the filtrate is dissolved in DMSO in the mobile phase to obtain concentration samples situating themselves on the calibrating line. They are then dosed thanks to the validated HPLC method, described below.
Mobile phase: mixture of phosphate buffer 0.05 M to pH=3 and methanol (30/70, v/v). Gas is extracted by an ultrasound passage for 15 minutes, output: 1 ml/min, λ of U.V. detection: 265 nm, Working temperature: 30° C., Injection volume: 20 μl.
The results of the HPLC dosages of Compound I are reproduced in the tables below (Tables 1 to 4) for each cyclodextrin.

[2] = Pharmacokinetics after intravenous administration to sheep; type: in vivo; settings: intravenous 5 mg/kg
Protocol: The Compound I/HP-β-CD intravenous solution was obtained by dissolving Compound I (10 mg/ml) in a solution containing HP-β-CD (200 mM), L-lysine (20 mM) and water for injection. The osmolality (about 325 mOsmol/kg) and the pH (about 8.2) values of this solution are compatible with an intravenous injection. The solution was sterilized by passing through a sterile 0.20 μm cellulose acetate filter under aseptic conditions.
Six healthy sheep (2 males and 4 females) ranging from 45 to 82 kg of body weight were used as experimental animals. During the test, the animals were fed and watered ad libitum. […]
For the intravenous administration study, the pharmacokinetic parameters were determined for each animal using a linear two-compartment model with first-order distribution and elimination (Boroujerdi, M., Pharmacokinetics, Principles and Applications. McGrow-Hill Companies, USA, 2002). The areas under the curve values (AUCs0-168) were calculated by linear trapezoidal rule during the sampling period. The AUC extrapolated until infinite values (AUCs0-∞) the total body clearance values (Clt), the biologic half-life (T1/2β) and the overall volume of distribution (Vdt) were calculated using conventional equations associated with compartmental analysis (Boroujerdi, M., Pharmacokinetics, Principles and Applications. McGrow-Hill Companies, USA, 2002).

[3] = system: allergen-induced airway inflammation and bronchial hyperresponsiveness in a mouse model of asthma; experiment: Mouse model of asthma, inhalation, short exposure challenge; settings: inhalation of Compound I 40 mg/ml in pure DMSO, short-term exposure, vs DMSO alone
Protocol: Two protocols referred to as short exposure challenge and long-term exposure challenge were used. […] No inhalations were performed during even weeks.
The aerosol were produced by using an ultrasonic nebuliser SYSTAM (Système Assistance Medical, Le Ledat, France), the vibration frequency of which is 2.4 MHz with variable vibration intensity and ventilation levels. Vibration intensity was fixed in position 6 and the ventilation level was 25(v1/2) l/min.
Twenty-four hours after the last allergen exposure, the bronchial hyper responsiveness was determined by measuring the Penh using a barometric plethysmograph as proposed by Hamelmann, E., et al., Am. […] The Penh was measured at baseline and 5 min after the inhalation of increasing doses (25, 50, 75 and 100 mM) of methacholine (Mch).
Immediately after the assessment of airway responsiveness, mice were sacrificed and 1 ml of PBS free of ionised calcium and magnesium but supplemented with 0.05 mM sodium EDTA was instilled 4 times via a tracheal cannula and recovered by gentle manual aspiration. The recovered bronchoalveolar lavage fluid (BAL) was centrifuged (1800 rpm for 10 min at 4° C.). The cell pellet was washed twice and finally resuspended in 1 ml of PBS. A total cell count was performed in a Thoma chamber and the differential cell counts on at least 400 cells were performed on cytocentrifuged preparations (Cytospin 2; Cytospin, Shandon td., Runcorn, Cheshire, U.K.) using standard morphologic criteria after staining with Diff-Quick (Dade, Germany). After BAL, the thorax was opened and the left main bronchus was clamped. […] Sections of 5 μm thickness from all lobes were stained with haematoxylin and eosin. The extent of peribronchial infiltrates was estimated by an inflammation score. […] A value from 0 to 3 per criteria was adjudged to each tissue section scored. […] As 5-7 randomly selected tissue sections per mouse were scored, inflammation scores could be expressed as a mean value per animal and could be compared between groups.

## O=C1NC(=O)C(c2ccc(-c3ccccc3)cc2)(N2CCN(c3ccc([N+](=O)[O-])cc3)CC2)C(=O)N1 [Compound I, 5-Biphenyl-4-yl-5-[4-(4-nitro-phenyl)-piperazin-1-yl]pyrimidine-2,4,6-trione]
[1]; HPβCD solution, aqueous with cosolvent or surfactant or cyclodextrin, HPβCD, maximum concentration used 200 mM, read-out: Maximum solubility
  solubility at 7 days: 4960 µg/mL (≈ 10200 µM)
[1]; RMβCD 10 mM, 37° C., 7 days
  Concentration of Compound I (solubility): 120.6 µg/mL
[1]; RMβCD solution, aqueous with cosolvent or surfactant or cyclodextrin, RMβCD, maximum concentration used 200 mM, read-out: Maximum solubility
  solubility at 7 days: 11900 µg/mL (≈ 24600 µM)
[1]; after 1 day
  Complex formation and achievement of the equilibrium: 20%
[1]; after 4 days
  Complex formation and achievement of the equilibrium: 40%
[1]; after 7 days
  Complex formation and achievement of the equilibrium: 100%
[1]; complex with HP-βCD
  K1:1 (stability constant): 12575 M⁻¹
  K1:2 (stability constant): 14.4 M⁻¹
[1]; complex with RMβCD
  K1:1 (stability constant): 27595 M⁻¹
  K1:2 (stability constant): 22.88 M⁻¹
[1]; complex with βCD
  K1:1 (stability constant): 2092 M⁻¹
[1]; complex with γCD
  K1:1 (stability constant): 346 M⁻¹
[1]; cyclodextrin solution, aqueous with cosolvent or surfactant or cyclodextrin, HPβCD 10 mM, 37° C., 7 days, read-out: Concentration of Compound I (solubility)
  solubility at 7 days: 188 µg/mL (≈ 387 µM)
[1]; cyclodextrin solution, aqueous with cosolvent or surfactant or cyclodextrin, HPβCD 25 mM, 37° C., 7 days, read-out: Concentration of Compound I (solubility)
  solubility at 7 days: 213 µg/mL (≈ 440 µM)
[1]; cyclodextrin solution, aqueous with cosolvent or surfactant or cyclodextrin, HPβCD 50 mM, 37° C., 7 days, read-out: Concentration of Compound I (solubility)
  solubility at 7 days: 236 µg/mL (≈ 486 µM)
[1]; cyclodextrin solution, aqueous with cosolvent or surfactant or cyclodextrin, HPβCD 75 mM, 37° C., 7 days, read-out: Concentration of Compound I (solubility)
  solubility at 7 days: 1130 µg/mL (≈ 2330 µM)
[1]; cyclodextrin solution, aqueous with cosolvent or surfactant or cyclodextrin, HPβCD 100 mM, 37° C., 7 days, read-out: Concentration of Compound I (solubility)
  solubility at 7 days: 1660 µg/mL (≈ 3430 µM)
[1]; cyclodextrin solution, aqueous with cosolvent or surfactant or cyclodextrin, HPβCD 150 mM, 37° C., 7 days, read-out: Concentration of Compound I (solubility)
  solubility at 7 days: 3110 µg/mL (≈ 6400 µM)
[1]; cyclodextrin solution, aqueous with cosolvent or surfactant or cyclodextrin, HPβCD 200 mM, 37° C., 7 days, read-out: Concentration of Compound I (solubility)
  solubility at 7 days: 4960 µg/mL (≈ 10200 µM)
[1]; cyclodextrin solution, aqueous with cosolvent or surfactant or cyclodextrin, RMβCD 25 mM, 37° C., 7 days, read-out: Concentration of Compound I (solubility)
  solubility at 7 days: 527 µg/mL (≈ 1080 µM)
[1]; cyclodextrin solution, aqueous with cosolvent or surfactant or cyclodextrin, RMβCD 50 mM, 37° C., 7 days, read-out: Concentration of Compound I (solubility)
  solubility at 7 days: 1530 µg/mL (≈ 3150 µM)
[1]; cyclodextrin solution, aqueous with cosolvent or surfactant or cyclodextrin, RMβCD 75 mM, 37° C., 7 days, read-out: Concentration of Compound I (solubility)
  solubility at 7 days: 3010 µg/mL (≈ 6200 µM)
[1]; cyclodextrin solution, aqueous with cosolvent or surfactant or cyclodextrin, RMβCD 100 mM, 37° C., 7 days, read-out: Concentration of Compound I (solubility)
  solubility at 7 days: 4680 µg/mL (≈ 9630 µM)
[1]; cyclodextrin solution, aqueous with cosolvent or surfactant or cyclodextrin, RMβCD 150 mM, 37° C., 7 days, read-out: Concentration of Compound I (solubility)
  solubility at 7 days: 8320 µg/mL (≈ 17100 µM)
[1]; cyclodextrin solution, aqueous with cosolvent or surfactant or cyclodextrin, RMβCD 200 mM, 37° C., 7 days, read-out: Concentration of Compound I (solubility)
  solubility at 7 days: 12000 µg/mL (≈ 24600 µM)
[1]; cyclodextrin solution, aqueous with cosolvent or surfactant or cyclodextrin, concentrations above 8 mM βCD, read-out: Solubility of additional complex of 1:2 stoichiometry (Cpd. I: βCD)
  solubility at 7 days: 1.5 µg/mL (≈ 3.09 µM)
[1]; cyclodextrin solution, aqueous with cosolvent or surfactant or cyclodextrin, in the presence of HPβCD, CD 2 mM, 37° C., 7 days, read-out: Concentration of Compound I (solubility)
  solubility at 7 days: 2.4 µg/mL
[1]; cyclodextrin solution, aqueous with cosolvent or surfactant or cyclodextrin, in the presence of HPβCD, CD 4 mM, 37° C., 7 days, read-out: Concentration of Compound I (solubility)
  solubility at 7 days: 6.8 µg/mL
[1]; cyclodextrin solution, aqueous with cosolvent or surfactant or cyclodextrin, in the presence of HPβCD, CD 8 mM, 37° C., 7 days, read-out: Concentration of Compound I (solubility)
  solubility at 7 days: 6.6 µg/mL
[1]; cyclodextrin solution, aqueous with cosolvent or surfactant or cyclodextrin, in the presence of HPβCD, CD 10 mM, 37° C., 7 days, read-out: Concentration of Compound I (solubility)
  solubility at 7 days: 3.4 µg/mL
[1]; cyclodextrin solution, aqueous with cosolvent or surfactant or cyclodextrin, in the presence of HPβCD, CD 12 mM, 37° C., 7 days, read-out: Concentration of Compound I (solubility)
  solubility at 7 days: 1.6 µg/mL
[1]; cyclodextrin solution, aqueous with cosolvent or surfactant or cyclodextrin, in the presence of HPβCD, CD 16 mM, 37° C., 7 days, read-out: Concentration of Compound I (solubility)
  solubility at 7 days: 1.5 µg/mL
[1]; cyclodextrin solution, aqueous with cosolvent or surfactant or cyclodextrin, γCD 10 mM, 37° C., 7 days, read-out: Concentration of Compound I (solubility)
  solubility at 7 days: 1.3 µg/mL (≈ 2.68 µM)
[1]; cyclodextrin solution, aqueous with cosolvent or surfactant or cyclodextrin, γCD 100 mM, 37° C., 7 days, read-out: Concentration of Compound I (solubility)
  solubility at 7 days: 19.5 µg/mL (≈ 40.2 µM)
[1]; cyclodextrin solution, aqueous with cosolvent or surfactant or cyclodextrin, γCD 200 mM, 37° C., 7 days, read-out: Concentration of Compound I (solubility)
  solubility at 7 days: 29.1 µg/mL (≈ 59.9 µM)
[1]; water without cyclodextrin, water, without cyclodextrin, read-out: Solubility in water
  solubility at 7 days: < 0.6 µg/mL
[1]; βCD solution, aqueous with cosolvent or surfactant or cyclodextrin, βCD, maximum concentration used 4 mM, read-out: Maximum solubility
  solubility at 7 days: 6.8 µg/mL (≈ 14 µM)
[1]; γCD solution, aqueous with cosolvent or surfactant or cyclodextrin, γCD 25 mM, 37° C., 7 days, read-out: Concentration of Compound I (solubility)
  solubility at 7 days: 3.2 µg/mL (≈ 6.59 µM)
[1]; γCD solution, aqueous with cosolvent or surfactant or cyclodextrin, γCD 50 mM, 37° C., 7 days, read-out: Concentration of Compound I (solubility)
  solubility at 7 days: 11.4 µg/mL (≈ 23.5 µM)
[1]; γCD solution, aqueous with cosolvent or surfactant or cyclodextrin, γCD 75 mM, 37° C., 7 days, read-out: Concentration of Compound I (solubility)
  solubility at 7 days: 13.6 µg/mL (≈ 28 µM)
[1]; γCD solution, aqueous with cosolvent or surfactant or cyclodextrin, γCD, maximum concentration used 200 mM, read-out: Maximum solubility
  solubility at 7 days: 29.1 µg/mL (≈ 59.9 µM)
[2]
  Distribution phase: about 30 minutes
[3]; p<0.005
  BAL eosinophils: significant decrease
[3]; p<0.01
  Peribronchial inflammation scores: significant decrease
[3]; p<0.05
  Bronchial hyperresponsiveness: significant decrease

— patent US8044035B2, “Pharmaceutical compositions of pyrimidine-2,4,6-triones” (priority 2004, dated 2011)
